In PMC11899342, “Novel Triazeneindole Antibiotics: Synthesis and Hit-to-Lead Optimization” (International Journal of Molecular Sciences, 2025):

What was measured:
[1] = Stability in rat liver microsomes; type: in vitro ADME; conditions: NADPH
Description: The liver metabolism of the substance was studied in the microsomal fractions of human and rat livers (XenoTech HMMCPL, RTMCPL, Kansas City, KS, USA) in the presence of the cofactor of the oxidative enzymes NADPH (AppliChem, Darmstadt, Germany).
The plate was incubated in a thermal shaker for 10 min at 400 rpm and 37 °C; then, 2.4 µL of 100× stocks of the tested substance was added into each well. A total of 30 µL of 8× cofactor solution was added to each experimental well (two replicates), 30 µL of deionized water was added to one control well, and all wells were mixed three times using a multichannel pipette with a volume of 100 µL. After mixing, the plate was placed in a thermal shaker at 400 rpm and 37 °C. The reactions were terminated at the following time points—0, 5, 10, 15, 20, and 30 min—by transferring 30 µL of the reaction mixture from the corresponding well to 1.1 mL microtubes and adding 180 µL of acetonitrile with internal standard 200 ng/mL tolbutamide (Fluka, Switzerland). To evaluate the stability of the substance in the microsomes without the cofactor, two aliquots were taken from the control well, and the reactions were terminated at 0 and 30 min time points. […] Then, the samples were centrifuged for 10 min at 1500× g, and 150 μL of the supernatant was taken for UPLC–MS/MS analysis.

[2] = Stability in artificial gastric juice; type: in vitro ADME; conditions: pH 1.2, pepsin, 37 °C, read-out: t1/2 in artificial gastric juice
Description: During ADME studies, the concentration of the compounds was analyzed using ultra-performance liquid chromatography (UPLC) coupled with tandem mass spectrometry (MS/MS) in the multiple reaction monitoring (MRM) mode. A quantitative analysis was performed using the internal standard (IS) calibration method, with tolbutamide as the IS.
The analyses were carried out on a system composed of an Agilent 1290 Infinity UPLC system (Agilent Technologies, USA) connected by ESI interface to a tandem quadrupole mass spectrometer QTRAP 6500 (AB Sciex Corp, Framingham, MA, USA). The separation was conducted on an YMC Triart C18 50 × 2 mm, 1.9 μm column, which was kept at 35 °C. The samples were cooled to 8 °C in an autosampler, and aliquots of 1 µL were delivered onto the column. Elution was performed using gradients of A (0.1% formic acid in water) and B (0.1% formic acid in acetonitrile), at the flow rate 0.35 mL/min. […] The declustering potential was 31 V for BX and 93 V for IS, resepectively; the collision energy was attuned to 17 eV; the collision cell exit potential was 10 V for BX and 8 V for IS MRM, respectively; the analyses were recorded for 305 → 234 (BX) and 271 → 172 (tolbutamide). […]

[3] = target: T1, hERG K+-ion channel (Homo sapiens, UniProt Q12809); test: Predictor hERG fluorescence polarization assay; type: binding; conditions: tracer displacement, up to 50 µM
T1 construct: purchased Invitrogen
T1 sequence (Q12809 whole entry): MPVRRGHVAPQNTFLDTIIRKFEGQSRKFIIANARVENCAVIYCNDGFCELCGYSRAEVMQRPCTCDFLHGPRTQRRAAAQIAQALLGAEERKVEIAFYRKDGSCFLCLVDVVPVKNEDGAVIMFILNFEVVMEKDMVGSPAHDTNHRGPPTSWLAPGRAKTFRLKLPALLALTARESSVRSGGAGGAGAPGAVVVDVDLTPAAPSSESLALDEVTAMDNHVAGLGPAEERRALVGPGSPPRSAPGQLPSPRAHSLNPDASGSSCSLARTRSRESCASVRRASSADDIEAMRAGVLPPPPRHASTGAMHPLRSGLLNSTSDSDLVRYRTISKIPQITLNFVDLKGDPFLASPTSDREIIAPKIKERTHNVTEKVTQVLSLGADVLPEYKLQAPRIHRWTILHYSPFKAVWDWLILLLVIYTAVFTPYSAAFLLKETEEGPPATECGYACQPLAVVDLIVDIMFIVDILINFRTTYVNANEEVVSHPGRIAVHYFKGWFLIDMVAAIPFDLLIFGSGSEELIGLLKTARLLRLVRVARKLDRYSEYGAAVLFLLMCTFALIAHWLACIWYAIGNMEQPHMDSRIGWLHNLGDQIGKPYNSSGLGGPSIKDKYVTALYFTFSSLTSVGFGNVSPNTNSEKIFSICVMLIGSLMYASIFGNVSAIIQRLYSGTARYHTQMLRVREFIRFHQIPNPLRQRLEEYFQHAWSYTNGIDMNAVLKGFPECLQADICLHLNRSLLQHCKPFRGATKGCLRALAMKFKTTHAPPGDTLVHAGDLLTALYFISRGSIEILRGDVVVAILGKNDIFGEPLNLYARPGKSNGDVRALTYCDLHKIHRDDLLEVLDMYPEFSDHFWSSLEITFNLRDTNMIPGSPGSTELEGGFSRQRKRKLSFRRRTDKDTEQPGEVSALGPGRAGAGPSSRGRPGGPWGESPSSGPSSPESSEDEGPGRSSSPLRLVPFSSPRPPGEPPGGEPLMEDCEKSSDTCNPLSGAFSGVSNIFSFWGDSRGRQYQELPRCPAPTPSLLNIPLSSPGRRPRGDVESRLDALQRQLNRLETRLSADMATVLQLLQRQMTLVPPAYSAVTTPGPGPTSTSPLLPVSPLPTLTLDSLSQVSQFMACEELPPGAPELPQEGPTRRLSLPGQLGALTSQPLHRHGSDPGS
Description: Determination of the binding of the BX-SI043 compound to the hERG K^+-ion channel was carried out using the Predictor hERG Fluorescence Polarization Assay Kit (Invitrogen, USA) at concentrations of 0.016, 0.08, 0.4, 2, 10, and 50 µM, according to the manufacturer’s instructions. This method is based on the measurement of the changing fluorescence polarization caused by the displacement of the high-affinity fluorescent tracer by the tested compound. A selective inhibitor of the hERG channels E-4031 was used as a control compound. Briefly, a 2X solution of membranes, containing hERG channels, was prepared and placed in 384-well plate. The tested substance, the control substance, the buffer, and the tracer were placed in the corresponding wells and incubated in the dark at room temperature for 2 h. Fluorescence polarization measurement was conducted on an Infinite M1000 PRO plate reader with the following parameters: 10 flashes per well; an excitation center wavelength of 530 nm, with a bandwidth of 5 nm; an emission center wavelength of 585 nm, with a bandwidth of […]. The calculation of the IC50 half-maximal inhibition concentration values was performed in GraphPad Prism 6.0 (GraphPad Software Inc.), based on the equations of the experimental curves.

[4] = system: Caco-2 cells; test: Caco-2 cell monolayer permeability; type: in vitro ADME, human
Description: (§1) The MultiScreen Caco-2 (ATCC cat. # HTB-37) test system (Millipore, St. Charles, MO, USA) was used to study the transport through a cell monolayer, according to the manufacturer’s instructions. Briefly, a study of transport from the apical membrane to the basolateral (A-B) area and in the opposite direction (B-A) was carried out on a 21-day culture of Caco-2 at a 1 µM concentration of the tested compound for 2 h. Monolayer integrity was verified by measuring electrical resistance (TEER) using a Millicell-ERS instrument. A TEER value of at least 3 KOhm/well was determined to be acceptable.

[5] = Caco-2 cell monolayer permeability; type: in vitro ADME, human; conditions: human, Caco-2; read-out: Asymmetry index
Description: as §1

CCOC(=O)c1[nH]c2cc(F)ccc2c1/N=N/N1CCCC1 [BX-SI043, Ethyl (E)-6-fluoro-3-(pyrrolidin-1-yldiazenyl)-1H-indole-2-carboxylate]
microsomal CLint ([1]; pH 7.4, rat liver microsomes): 2140 µL/min/mg
Remaining after 30 min ([1]; rat liver microsomes): 0.00%
t1/2 ([1]; rat liver microsomes, listed as ВХSI043): 1.30 min
half-life ([1]; rat, liver microsomes, pH 7.4, rat liver microsomes): 1.4 min
half-life at 1 µM [2]: < 10 min
IC50 [3]: > 50 µM
Papp A-B ([4]; Caco-2, 1 µM, 2 h): 0.51 10^-6 sm/s
Papp B-A ([4]; Caco-2, 1 µM, 2 h): 0.19 10^-6 sm/s
Mass balance ([4]; Caco-2, first value: A-B / apical): 49%
Mass balance ([4]; Caco-2, first value: A-B / apical, listed as ВХ-SI043): 49%
Mass balance ([4]; Caco-2, second value: B-A / basolateral): 25.1%
efflux ratio at 2 h, 1 µM [5]: 0.37
